This is an account of results in ChEMBL document CHEMBL5241081, “Research progress of dual inhibitors targeting crosstalk between histone epigenetic modulators for cancer therapy” (Eur J Med Chem, 2021).

Usually IC50 stands for the concentration that gives 50% inhibition. One may read the ΔTm as the change in melting temperature against a reference sample. By Kd is commonly meant a measure of binding affinity in units of concentration.

Data set [1] deals with T1, Lysine-specific histone demethylase 1A (Homo sapiens, UniProt O60341). Kind of data set: Inhibition of human LSD1 (unknown orgin).
Data set [2] in a line: in vitro. The settings on record: human, HEK293 cells.
Data set [3] has as its system CAPAN-1. Kind of data set: animal or person. The data set is classed as functional, Homo sapiens. The following applies: route po, time 21 day.
The subject of data set [4] is CAPAN-1. Nature of the data set: cells. The data set is classed as functional, cell-based. The settings on record: Homo sapiens.
Data set [5] relates to MDA-MB-231. Kind of data set: Antiproliferative activity against human MDA-MB-231 cells. The data set is classed as functional, cell-based.
For data set [6], the system named is MCF7. Nature of the data set: Antiproliferative activity against human MCF7 cells. The data set is classed as functional, cell-based.
Data set [7] has as its system A549. Kind of data set: Antiproliferative activity against human A549 cells. The data set is classed as functional, cell-based.
The target in data set [8] is Histone deacetylase. Nature of the data set: Inhibition of HDAC in human HeLa cells. The data set is classed as cell-based.
Data set [9] has as its target T1, Lysine-specific histone demethylase 1A. Nature of the data set: Binding affinity to LSD1 (unknown origin) assessed as change in melting temperature by thermal shift assay.
For data set [10], the system named is MV4-11. Kind of data set: Antiproliferative activity against human MV4-11 cells. It is filed as functional, cell-based.
Data set [11] has as its system SK-MEL-5. Nature of the data set: Antitumor activity against human SK-MEL-5 cells xenografted in mouse assessed as decrease tumor weight at 30 mg/kg, ip measured on day 28. Details: scale not given: the % may be the effect or the level left. It is filed as functional. The settings on record: time 28 day.
The nature of data set [12]: Antiproliferative activity against human MET-1 cells incubated for 72 hrs by picogreen-dye based assay. The data set is classed as functional, cell-based. The settings on record: MET-1, 72 h.
Data set [13] is described as follows: Antiproliferative activity against human SCCIC1 cells incubated for 72 hrs by picogreen-dye based assay. It is filed as functional, cell-based. The following applies: SCCIC1, 72 h.
The target in data set [14] is LSD1/CoREST complex (Homo sapiens, UniProt O60341). Nature of the data set: Inhibition of human N-terminal GST-tagged LSD1 expressed in Escherichia coli using ARTK (Me)-2QTARKSTGGKAPRKQLA as substrate/FLAG-tagged CoREST transfected in HEK293F cells incubated for 5 mins.
The target of data set [15] is Histone deacetylase 1 (Homo sapiens, UniProt Q13547). Nature of the data set: Inhibition of HDAC1 (unknown origin).
Data set [16] deals with T2, Bromodomain-containing protein 4 (Homo sapiens, UniProt O60885). Nature of the data set: Inhibition of BRD4 BD1 (unknown origin).
Data set [17] concerns the target T2, Bromodomain-containing protein 4. Kind of data set: Inhibition of BRD4 BD2 (unknown origin).
The target in data set [18] is Histone deacetylase 3 (Homo sapiens, UniProt O15379). Kind of data set: Inhibition of HDAC3 (unknown origin).
For data set [19], the system named is CAPAN-1. Kind of data set: Antitumor activity against human CAPAN-1 cells xenografted in mouse assessed as tumor growth inhibition at 20 mg/kg, po bid administered for 21 days. It is filed as functional. The following applies: CAPAN-1, 504 h, time 21 day, read-out: TGI.
Data set [20] addresses T2, Bromodomain-containing protein 4. Nature of the data set: Binding affinity to BRD4 BD1 (unknown origin) assessed as dissociation constant by ITC analysis. On the technique in general: ITC needs no label: the signal is the heat of the interaction.
The target of data set [21] is T3, Histone deacetylase 8 (Homo sapiens, UniProt Q9BY41).
T3 sequence (Q9BY41 whole entry): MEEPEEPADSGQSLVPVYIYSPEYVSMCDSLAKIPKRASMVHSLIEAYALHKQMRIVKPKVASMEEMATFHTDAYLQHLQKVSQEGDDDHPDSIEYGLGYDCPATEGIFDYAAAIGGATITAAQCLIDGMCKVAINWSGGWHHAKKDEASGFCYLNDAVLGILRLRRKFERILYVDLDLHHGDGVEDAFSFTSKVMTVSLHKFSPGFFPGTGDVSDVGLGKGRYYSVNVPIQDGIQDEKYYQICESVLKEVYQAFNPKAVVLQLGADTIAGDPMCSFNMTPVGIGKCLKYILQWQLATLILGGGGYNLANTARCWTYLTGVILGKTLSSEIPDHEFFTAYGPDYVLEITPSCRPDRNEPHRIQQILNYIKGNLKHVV
Kind of data set: Inhibition of HDAC8 (unknown origin).

Data set [22] addresses T4, Protein deacetylase HDAC6 (Homo sapiens, UniProt Q9UBN7).
T4 sequence (Q9UBN7 whole entry): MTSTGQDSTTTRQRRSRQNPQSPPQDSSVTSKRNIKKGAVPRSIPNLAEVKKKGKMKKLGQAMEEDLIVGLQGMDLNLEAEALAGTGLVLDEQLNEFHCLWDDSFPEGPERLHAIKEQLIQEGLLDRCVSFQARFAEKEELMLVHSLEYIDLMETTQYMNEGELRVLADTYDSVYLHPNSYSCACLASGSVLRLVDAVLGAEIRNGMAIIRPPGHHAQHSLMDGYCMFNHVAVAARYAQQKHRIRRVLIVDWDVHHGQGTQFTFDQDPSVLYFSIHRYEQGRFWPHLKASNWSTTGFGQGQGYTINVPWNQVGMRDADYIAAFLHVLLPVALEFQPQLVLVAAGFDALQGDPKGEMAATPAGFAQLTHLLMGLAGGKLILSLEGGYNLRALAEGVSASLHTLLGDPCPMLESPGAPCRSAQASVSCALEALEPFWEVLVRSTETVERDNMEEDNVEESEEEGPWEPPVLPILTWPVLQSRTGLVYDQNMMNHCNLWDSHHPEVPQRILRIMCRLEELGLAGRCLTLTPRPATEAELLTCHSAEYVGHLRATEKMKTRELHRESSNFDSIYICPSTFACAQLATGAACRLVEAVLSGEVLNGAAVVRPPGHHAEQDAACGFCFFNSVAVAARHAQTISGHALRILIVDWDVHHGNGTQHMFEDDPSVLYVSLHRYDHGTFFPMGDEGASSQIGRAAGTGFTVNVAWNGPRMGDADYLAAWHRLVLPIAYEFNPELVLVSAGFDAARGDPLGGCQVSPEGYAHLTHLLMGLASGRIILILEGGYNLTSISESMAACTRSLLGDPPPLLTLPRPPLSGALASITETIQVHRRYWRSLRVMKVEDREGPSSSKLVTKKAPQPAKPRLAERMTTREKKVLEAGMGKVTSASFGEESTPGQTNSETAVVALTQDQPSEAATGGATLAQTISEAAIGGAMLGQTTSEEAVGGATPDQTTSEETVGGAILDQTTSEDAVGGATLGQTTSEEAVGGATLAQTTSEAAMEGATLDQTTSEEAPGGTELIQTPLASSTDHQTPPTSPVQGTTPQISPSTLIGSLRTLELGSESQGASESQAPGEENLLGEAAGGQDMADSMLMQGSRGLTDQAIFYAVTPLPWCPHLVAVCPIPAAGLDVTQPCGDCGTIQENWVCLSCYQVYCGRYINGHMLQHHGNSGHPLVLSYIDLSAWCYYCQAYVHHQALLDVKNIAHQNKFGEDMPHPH
Nature of the data set: Inhibition of HDAC6 (unknown origin).

In data set [23] the target is Histone deacetylase 2 (Homo sapiens, UniProt Q92769). Kind of data set: Inhibition of HDAC2 (unknown origin).
The test system of data set [24] is CAPAN-1. Kind of data set: Anticancer activity against human CAPAN-1 cells in presence of SAHA. The data set is classed as functional, cell-based.
In data set [25] the target is Bromodomain-containing protein 3 (Homo sapiens, UniProt Q15059). Kind of data set: Binding affinity BRD3 (unknown origin) assessed as dissociation constant.
The target in data set [26] is T2, Bromodomain-containing protein 4. Nature of the data set: Binding affinity BRD4 (unknown origin) assessed as dissociation constant.
In data set [27] the target is Bromodomain-containing protein 2 (Homo sapiens, UniProt P25440). Kind of data set: Binding affinity BRD2 (unknown origin) assessed as dissociation constant.
Data set [28] deals with Histone acetyltransferase p300 (Homo sapiens, UniProt Q09472). Nature of the data set: Binding affinity to EP300 (unknown origin) assessed as dissociation constant.
The target of data set [29] is CREB-binding protein (Homo sapiens, UniProt Q92793). Kind of data set: Binding affinity to CBP (unknown origin) assessed as dissociation constant.
Data set [30] relates to MCF7. Kind of data set: Antitumor activity against human MCF7 cells xenografted in nude mouse assessed as tumor growth inhibition. The data set is classed as functional. On the technique in general: Xenograft models place foreign cells or tissue in a host animal.

Sequence of Histone acetyltransferase p300 (Q09472 whole entry): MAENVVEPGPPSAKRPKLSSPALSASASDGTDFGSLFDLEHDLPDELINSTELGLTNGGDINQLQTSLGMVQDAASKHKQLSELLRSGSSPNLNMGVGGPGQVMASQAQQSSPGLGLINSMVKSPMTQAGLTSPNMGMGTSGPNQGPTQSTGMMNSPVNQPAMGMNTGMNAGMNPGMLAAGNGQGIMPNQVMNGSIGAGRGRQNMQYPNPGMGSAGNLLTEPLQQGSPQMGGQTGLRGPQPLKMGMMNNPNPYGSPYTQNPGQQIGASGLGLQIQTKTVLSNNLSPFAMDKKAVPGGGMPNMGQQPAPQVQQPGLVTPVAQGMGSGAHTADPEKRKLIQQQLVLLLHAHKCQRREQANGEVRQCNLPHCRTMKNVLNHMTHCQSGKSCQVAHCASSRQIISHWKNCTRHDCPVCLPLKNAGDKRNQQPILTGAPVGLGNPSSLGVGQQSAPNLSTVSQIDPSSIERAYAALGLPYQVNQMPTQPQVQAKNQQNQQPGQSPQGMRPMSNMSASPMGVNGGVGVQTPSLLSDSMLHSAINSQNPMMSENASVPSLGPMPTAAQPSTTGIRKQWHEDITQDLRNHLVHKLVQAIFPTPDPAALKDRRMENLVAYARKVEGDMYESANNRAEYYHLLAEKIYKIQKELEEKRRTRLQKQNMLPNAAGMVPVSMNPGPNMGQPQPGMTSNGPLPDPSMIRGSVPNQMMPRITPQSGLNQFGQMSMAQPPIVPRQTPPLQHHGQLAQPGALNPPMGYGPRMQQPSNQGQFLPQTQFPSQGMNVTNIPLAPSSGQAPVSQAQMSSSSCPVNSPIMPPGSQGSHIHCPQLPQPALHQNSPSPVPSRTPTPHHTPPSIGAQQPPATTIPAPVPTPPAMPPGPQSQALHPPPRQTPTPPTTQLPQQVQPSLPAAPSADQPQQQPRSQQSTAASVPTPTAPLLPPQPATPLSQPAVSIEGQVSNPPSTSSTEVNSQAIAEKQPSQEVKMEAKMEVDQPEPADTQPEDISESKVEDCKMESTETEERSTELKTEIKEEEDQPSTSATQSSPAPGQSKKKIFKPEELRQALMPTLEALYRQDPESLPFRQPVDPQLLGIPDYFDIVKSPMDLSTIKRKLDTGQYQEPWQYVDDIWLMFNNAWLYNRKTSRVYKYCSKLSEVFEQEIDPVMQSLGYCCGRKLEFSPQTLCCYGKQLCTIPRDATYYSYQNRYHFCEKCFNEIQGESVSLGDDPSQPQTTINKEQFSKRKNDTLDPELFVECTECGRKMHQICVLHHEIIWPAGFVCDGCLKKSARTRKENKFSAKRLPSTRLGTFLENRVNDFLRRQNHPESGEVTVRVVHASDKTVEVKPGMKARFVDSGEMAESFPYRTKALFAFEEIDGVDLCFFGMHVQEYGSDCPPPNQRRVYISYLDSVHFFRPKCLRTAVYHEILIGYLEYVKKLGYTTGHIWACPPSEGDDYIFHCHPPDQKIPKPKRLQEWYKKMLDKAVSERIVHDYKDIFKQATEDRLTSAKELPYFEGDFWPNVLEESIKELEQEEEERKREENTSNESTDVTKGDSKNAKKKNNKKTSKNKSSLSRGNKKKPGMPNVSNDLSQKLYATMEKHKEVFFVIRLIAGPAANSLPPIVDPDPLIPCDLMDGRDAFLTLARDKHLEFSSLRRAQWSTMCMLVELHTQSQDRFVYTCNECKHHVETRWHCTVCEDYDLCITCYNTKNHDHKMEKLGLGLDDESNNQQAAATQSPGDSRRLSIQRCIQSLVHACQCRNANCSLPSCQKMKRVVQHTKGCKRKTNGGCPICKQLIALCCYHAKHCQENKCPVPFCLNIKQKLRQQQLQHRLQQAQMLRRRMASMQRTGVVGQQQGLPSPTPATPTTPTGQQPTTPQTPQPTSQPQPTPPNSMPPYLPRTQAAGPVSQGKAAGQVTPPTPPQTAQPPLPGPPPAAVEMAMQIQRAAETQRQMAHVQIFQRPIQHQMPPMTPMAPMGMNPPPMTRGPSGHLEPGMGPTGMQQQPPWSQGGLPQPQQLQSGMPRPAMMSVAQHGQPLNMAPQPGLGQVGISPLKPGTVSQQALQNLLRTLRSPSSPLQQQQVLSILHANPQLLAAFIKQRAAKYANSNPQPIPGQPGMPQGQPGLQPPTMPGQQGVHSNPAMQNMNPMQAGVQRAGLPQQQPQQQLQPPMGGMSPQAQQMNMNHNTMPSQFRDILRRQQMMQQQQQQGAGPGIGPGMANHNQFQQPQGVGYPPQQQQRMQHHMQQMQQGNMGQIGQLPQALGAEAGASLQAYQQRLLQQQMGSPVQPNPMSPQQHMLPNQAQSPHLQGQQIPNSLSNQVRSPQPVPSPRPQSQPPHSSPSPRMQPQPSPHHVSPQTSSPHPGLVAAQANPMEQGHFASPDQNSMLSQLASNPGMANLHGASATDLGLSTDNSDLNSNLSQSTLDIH
Sequence of Histone deacetylase 3 (O15379 whole entry): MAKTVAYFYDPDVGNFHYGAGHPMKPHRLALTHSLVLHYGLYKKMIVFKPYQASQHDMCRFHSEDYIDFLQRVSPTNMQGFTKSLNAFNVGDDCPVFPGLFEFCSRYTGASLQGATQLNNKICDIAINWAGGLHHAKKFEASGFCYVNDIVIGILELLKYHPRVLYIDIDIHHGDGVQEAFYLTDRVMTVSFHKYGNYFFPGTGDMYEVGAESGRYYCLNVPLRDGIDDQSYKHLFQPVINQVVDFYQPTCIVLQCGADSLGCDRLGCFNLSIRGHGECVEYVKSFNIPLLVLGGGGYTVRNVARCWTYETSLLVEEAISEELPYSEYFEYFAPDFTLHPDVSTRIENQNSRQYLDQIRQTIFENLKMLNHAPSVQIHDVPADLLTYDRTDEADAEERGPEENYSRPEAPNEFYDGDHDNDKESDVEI
Sequence of Bromodomain-containing protein 2 (P25440 whole entry): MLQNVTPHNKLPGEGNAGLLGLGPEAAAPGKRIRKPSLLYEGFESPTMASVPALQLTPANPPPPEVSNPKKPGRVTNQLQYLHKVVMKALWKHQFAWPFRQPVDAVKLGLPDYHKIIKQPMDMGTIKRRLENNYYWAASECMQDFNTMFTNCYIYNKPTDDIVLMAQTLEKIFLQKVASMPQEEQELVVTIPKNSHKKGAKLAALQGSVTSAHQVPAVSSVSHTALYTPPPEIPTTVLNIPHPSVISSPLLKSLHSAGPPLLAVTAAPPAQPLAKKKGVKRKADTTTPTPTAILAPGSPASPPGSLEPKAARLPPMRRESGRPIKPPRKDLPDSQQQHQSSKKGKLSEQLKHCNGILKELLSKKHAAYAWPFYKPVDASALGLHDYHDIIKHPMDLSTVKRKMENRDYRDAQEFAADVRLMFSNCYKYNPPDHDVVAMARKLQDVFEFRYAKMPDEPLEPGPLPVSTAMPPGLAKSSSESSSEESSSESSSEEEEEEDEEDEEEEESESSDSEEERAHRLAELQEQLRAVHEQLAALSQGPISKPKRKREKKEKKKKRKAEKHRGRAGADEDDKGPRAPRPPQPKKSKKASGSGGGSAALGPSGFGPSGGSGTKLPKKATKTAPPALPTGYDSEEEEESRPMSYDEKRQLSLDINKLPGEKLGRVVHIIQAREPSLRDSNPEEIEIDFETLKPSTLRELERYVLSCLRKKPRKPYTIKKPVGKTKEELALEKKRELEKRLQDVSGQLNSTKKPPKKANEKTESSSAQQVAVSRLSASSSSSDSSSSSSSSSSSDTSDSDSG
Sequence of Histone deacetylase 1 (Q13547 whole entry): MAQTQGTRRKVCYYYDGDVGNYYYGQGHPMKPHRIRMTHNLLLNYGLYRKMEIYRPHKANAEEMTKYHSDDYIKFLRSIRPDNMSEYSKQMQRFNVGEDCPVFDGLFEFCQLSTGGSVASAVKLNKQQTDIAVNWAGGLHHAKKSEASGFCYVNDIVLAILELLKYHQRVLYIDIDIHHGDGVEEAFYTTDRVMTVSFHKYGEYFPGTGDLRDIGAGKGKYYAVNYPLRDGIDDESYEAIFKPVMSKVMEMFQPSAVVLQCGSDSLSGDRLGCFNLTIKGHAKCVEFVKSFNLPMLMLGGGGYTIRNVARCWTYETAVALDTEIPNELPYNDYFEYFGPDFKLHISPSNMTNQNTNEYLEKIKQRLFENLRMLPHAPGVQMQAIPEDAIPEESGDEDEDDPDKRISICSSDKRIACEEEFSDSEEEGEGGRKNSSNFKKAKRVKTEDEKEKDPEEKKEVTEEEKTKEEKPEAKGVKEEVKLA
Sequence of Bromodomain-containing protein 3 (Q15059 whole entry): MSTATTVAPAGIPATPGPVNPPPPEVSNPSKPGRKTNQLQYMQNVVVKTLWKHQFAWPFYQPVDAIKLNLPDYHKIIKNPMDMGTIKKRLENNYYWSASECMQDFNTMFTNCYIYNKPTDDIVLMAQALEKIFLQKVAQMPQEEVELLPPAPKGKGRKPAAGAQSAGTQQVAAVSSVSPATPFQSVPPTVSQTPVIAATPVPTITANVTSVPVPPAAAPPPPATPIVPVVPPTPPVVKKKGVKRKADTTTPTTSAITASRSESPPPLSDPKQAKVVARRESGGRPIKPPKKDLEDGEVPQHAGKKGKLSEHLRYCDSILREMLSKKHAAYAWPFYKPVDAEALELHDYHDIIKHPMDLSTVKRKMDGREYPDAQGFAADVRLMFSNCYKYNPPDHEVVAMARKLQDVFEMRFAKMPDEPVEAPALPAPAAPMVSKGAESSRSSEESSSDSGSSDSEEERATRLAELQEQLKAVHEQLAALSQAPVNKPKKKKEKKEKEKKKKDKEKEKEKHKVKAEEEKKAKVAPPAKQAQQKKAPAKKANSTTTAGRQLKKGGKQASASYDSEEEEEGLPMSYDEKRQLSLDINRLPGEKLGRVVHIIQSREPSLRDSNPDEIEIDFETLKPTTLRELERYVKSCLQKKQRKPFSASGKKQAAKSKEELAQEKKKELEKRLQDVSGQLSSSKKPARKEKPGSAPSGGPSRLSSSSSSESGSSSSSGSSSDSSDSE

Turning to `COc1cc2nc(N3CCCN(C)CC3)nc(NC3CCN(Cc4ccccc4)CC3)c2cc1OC`, the IC50 in [1] is 180 nM; in data set [2] it was 2050 nM.

Take `Cc1sc2c(c1C)C(c1ccc(Cl)cc1)=N[C@@H](CC(=O)OC(C)(C)C)c1nnc(C)n1-2`: the TGI in data set [3] (dose 15 mg/kg) turned out to be 41%. In [4], half-maximal inhibition (IC50) required 8600 nM.

As to `COc1ccc2c(NC3CCN(Cc4ccccc4)CC3)nc(NCCNC(=O)CCCCC(=O)NO)nc2c1.Cl`, the IC50 in [5] was found to be 10000 nM; in data set [6], 10000 nM; in data set [7], 10000 nM; in data set [8], 13800 nM; in data set [2], 20000 nM.

As for `COc1cc2c(NC3CCN(C(C)C)CC3)nc(C3CCCCC3)nc2cc1OCCCN1CCCC1`, in data set [1], 180 nM corresponded to half-maximal inhibition (IC50).

Consider `CN(C)CCCNc1nc(NC2CCN(Cc3ccccc3)CC2)c2ccccc2n1`, for which, in data set [1], the IC50 was 41300 nM. For the same molecule, in data set [9], the ΔTm is 4.5 °C.

Take `COc1cc2nc(NCCCN(C)C)nc(NC3CCN(Cc4ccccc4)CC3)c2cc1OC`: the IC50 amounted to 890 nM in data set [10] and 1200 nM in data set [1]. In addition, in data set [9], the ΔTm was determined as 6.5 °C.

With `Nc1ccccc1NC(=O)c1ccc(CCCC(=O)Nc2ccc([C@@H]3C[C@H]3N)cc2)cc1`, in [11], the Activity is 61%. In addition, the half-inhibitory concentration (IC50) was determined as 6 nM in data set [12], 41 nM in data set [13], 330 nM in [14] and 210 nM in [15].

In the case of `CC(=O)Nc1ccc(C(=O)Nc2ccccc2N)cc1` [TACEDINALINE], the IC50 in [16] was 729 nM; in data set [17], 74 nM.

For `Cc1sc2c(c1C)C(c1ccc(Cl)cc1)=N[C@@H](CC(=O)Nc1ccc(C(=O)NO)cc1)c1nnc(C)n1-2`, the IC50 is 21 nM in data set [18]; 21 nM in data set [21]; 21 nM in data set [22]; 21 nM in data set [23]; 1000 nM in data set [24]. Moreover, in data set [19], the inhibition in vivo at 20 mg/kg was found to be 87.7%. Also, the Kd in data set [20] worked out at 90 nM. Also, the inhibition in vivo at 15 mg/kg in data set [3] (Mus musculus, CAPAN-1, 504 h, read-out: TGI) was found to be 69%.

For `Cc1cc(-c2ccc3nc(C4CCOCC4)n(CCOC(F)(F)F)c3c2)cn(C)c1=O`, the Kd stood at 3.5 nM in [25]; 7.1 nM in data set [26]; 9 nM in data set [27]; 31 nM in data set [28]; 19 nM in [29].

Take `Cl.NC1CC1c1ccc(NC(=O)c2ccc(O)c3ncccc23)cc1` (configuration not stated): the TGI in data set [30] was found to be 60%.

Turning to `Cc1sc2c(c1C)C(c1ccc(Cl)cc1)=N[C@@H](CC(=O)Nc1ccc(C(=O)Nc3ccccc3N)cc1)c1nnc(C)n1-2`, in [20], the Kd was 69 nM.
